Results reported in ChEMBL document CHEMBL1201862, “PubChem BioAssay data set” (2004).
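Assay format: 96-well plates, 48-hour exposure. At the GI50, growth is halved.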 Active and inactive are the calls of the source. Cut-off read from the data, not from the text of the source: active = GI50 up to about 1.1 µM and inactive = higher. Where a SMILES comes first, the peptide text is derived from it. [ ]: non-standard residue; d: D form. Phe(F5) = N[CH](Cc1c(F)c(F)c(F)c(F)c1F)C(=O)O

What was measured:
Test in all cases: NCI tumour cell line growth inhibition, 48 h
[1] = test system: M19-MEL
[2] = test system: HOP-18
[3] = test system: DMS-273
[4] = test system: LXFL 529
[5] = test system: SNB-78
[6] = test system: DMS-114
[7] = test system: DLD-1
[8] = test system: RXF 631
[9] = test system: XF498

Compound	GI50 [1]	GI50 [2]	GI50 [3]	GI50 [4]	GI50 [5]	GI50 [6]	GI50 [7]	GI50 [8]	GI50 [9]
Cc1cc2c(c(C(N)=O)c1C)-c1ccccc1C2=O	> 100 µM (inactive)	> 100 µM (inactive)	> 100 µM (inactive)	> 100 µM (inactive)	> 100 µM (inactive)	> 100 µM (inactive)	> 100 µM (inactive)	> 100 µM (inactive)	–
COc1ccccc1N1C(=O)/C(=C/c2ccc(N(CCC#N)CCC#N)cc2C)N=C1c1cc([N+](=O)[O-])ccc1Cl	24.2 µM (inactive)	> 100 µM (inactive)	> 100 µM (inactive)	> 100 µM (inactive)	> 100 µM (inactive)	> 100 µM (inactive)	–	–	> 100 µM (inactive)
CC(=O)Nc1cc(N(CCOS(C)(=O)=O)CCOS(C)(=O)=O)ccc1N=O	> 100 µM (inactive)	–	> 100 µM (inactive)	> 100 µM (inactive)	–	> 100 µM (inactive)	> 100 µM (inactive)	–	> 100 µM (inactive)
COC(=O)C(=O)C(C(=O)OC)C(=O)C(=O)Nc1c(C)cccc1C (stereo not drawn)	> 100 µM (inactive)	> 100 µM (inactive)	–	> 100 µM (inactive)	> 100 µM (inactive)	> 100 µM (inactive)	> 100 µM (inactive)	> 100 µM (inactive)	> 100 µM (inactive)
CCN(CC)CCNc1c2ccccc2nc2cccc([N+](=O)[O-])c12	0.0352 µM (active)	–	0.0358 µM (active)	0.0211 µM (active)	0.0993 µM (active)	0.0241 µM (active)	0.0225 µM (active)	0.0317 µM (active)	0.0193 µM (active)
OCCCOC(c1ccccc1)(c1ccccc1)c1ccccc1	> 100 µM (inactive)	–	> 100 µM (inactive)	> 100 µM (inactive)	38.9 µM (inactive)	> 100 µM (inactive)	60.1 µM (inactive)	> 100 µM (inactive)	> 100 µM (inactive)
COc1ccc(OCC(=O)O)c(C(=O)CCC(=O)O)c1	> 100 µM (inactive)	–	> 100 µM (inactive)	> 100 µM (inactive)	> 100 µM (inactive)	> 100 µM (inactive)	> 100 µM (inactive)	> 100 µM (inactive)	> 100 µM (inactive)
COc1cccc(SSc2cccc(OC)c2C(=O)O)c1C(=O)O	> 100 µM (inactive)	> 100 µM (inactive)	> 100 µM (inactive)	> 100 µM (inactive)	> 100 µM (inactive)	> 100 µM (inactive)	> 100 µM (inactive)	> 100 µM (inactive)	> 100 µM (inactive)
O=C(CNc1ccc2c(=S)c3ccccc3[nH]c2c1)Nc1ccccc1-c1ccccc1NC(=O)CNc1ccc2c(=S)c3ccccc3[nH]c2c1	> 39.2 µM (inactive)	16.1 µM (inactive)	> 46 µM (inactive)	7.45 µM (inactive)	32.9 µM (inactive)	17.1 µM (inactive)	11 µM (inactive)	–	19.1 µM (inactive)
CCC(Oc1ccc(OC)c2ccccc(=O)c12)C(=O)O (stereo not drawn)	> 100 µM (inactive)	–	> 100 µM (inactive)	> 100 µM (inactive)	> 100 µM (inactive)	> 100 µM (inactive)	–	> 100 µM (inactive)	–
COC(=O)C(CC(C)C)NC(=O)C(Cc1c[nH]cn1)NC(=O)CNC(=O)C(NC(=O)C(C)NC(=O)C(Cc1c[nH]c2ccccc12)NC(=O)C(CCC(=O)O)NC(=O)C(N)Cc1c(F)c(F)c(F)c(F)c1F)C(C)C (stereo not drawn) (H-[Phe(F5)]EWAVGHL-OMe; configuration not given here)	> 100 µM (inactive)	> 100 µM (inactive)	> 100 µM (inactive)	> 100 µM (inactive)	> 100 µM (inactive)	> 100 µM (inactive)	> 100 µM (inactive)	–	> 100 µM (inactive)
CC(=O)Oc1ccc(C(c2ccc(OC(C)=O)cc2)c2ccccn2)cc1 [BISACODYL]	97.5 µM (inactive)	> 47 µM (inactive)	> 100 µM (inactive)	28.8 µM (inactive)	–	0.57 µM (active)	7.11 µM (inactive)	> 100 µM (inactive)	40.1 µM (inactive)
NCCCC(N)(C(=O)O)C(F)F (stereo not drawn) [EFLORNITHINE]	> 3450 µM (inactive)	> 50 µM (inactive)	1220 µM (inactive)	> 100 µM (inactive)	> 5000 µM (inactive)	> 5000 µM (inactive)	> 3160 µM (inactive)	> 100 µM (inactive)	–
O=CN/C=C/c1cc(O)ccc1O [ERBSTATIN]	13.3 µM (inactive)	> 40.6 µM (inactive)	77.1 µM (inactive)	11.6 µM (inactive)	19 µM (inactive)	17.6 µM (inactive)	16 µM (inactive)	–	19.8 µM (inactive)
